Experimental data reported in EP1271240B1, “Silver halide color photographic material” (KONICA CORPORATION, priority 2001, dated 2003).

Assay: Dissolution temperature of coupler in tricresyl phosphate and ethyl acetate
Format: physicochemical
Conditions: 1 g coupler, tricresyl phosphate of equal weight and ethyl acetate of three times the weight; temperature at which the coupler was completely dissolved
Source text: Structures of comparative couplers a to e are respectively shown below. [drawing 115] [drawing 116] [drawing 117] [drawing 118] [drawing 119]

Structure (SMILES) | Dissolution Temperature
CCC(C)(C)c1ccc(OCCCCNC(=O)C(NC(=O)c2nn3c(-c4ccc(Cl)c(Cl)c4)n[nH]c3c2Cl)C(C)C)c(C(C)(C)CC)c1 (centres unmarked) [Coupler d] | 60 °C
CCC(C)(C)c1ccc(OCCCCNC(=O)c2nn3c(-c4cc(Cl)cc(Cl)c4)n[nH]c3c2Cl)c(C(C)(C)CC)c1 [Coupler b] | 60 °C
